From patent US10233186B2, “Inhibitors of activin receptor-like kinase” (BLUEPRINT MEDICINES CORPORATION, priority 2016, dated 2019) come the findings set out here.

In assay [1] the target is T1, ALK2 R206H (GST-tagged mutant ALK2) (Homo sapiens, UniProt Q04771, R206H).
T1 construct: purchased Carna Bioscience or ThermoFisher 09-148 or PV6232
T1 sequence (Q04771 21-509 R206H): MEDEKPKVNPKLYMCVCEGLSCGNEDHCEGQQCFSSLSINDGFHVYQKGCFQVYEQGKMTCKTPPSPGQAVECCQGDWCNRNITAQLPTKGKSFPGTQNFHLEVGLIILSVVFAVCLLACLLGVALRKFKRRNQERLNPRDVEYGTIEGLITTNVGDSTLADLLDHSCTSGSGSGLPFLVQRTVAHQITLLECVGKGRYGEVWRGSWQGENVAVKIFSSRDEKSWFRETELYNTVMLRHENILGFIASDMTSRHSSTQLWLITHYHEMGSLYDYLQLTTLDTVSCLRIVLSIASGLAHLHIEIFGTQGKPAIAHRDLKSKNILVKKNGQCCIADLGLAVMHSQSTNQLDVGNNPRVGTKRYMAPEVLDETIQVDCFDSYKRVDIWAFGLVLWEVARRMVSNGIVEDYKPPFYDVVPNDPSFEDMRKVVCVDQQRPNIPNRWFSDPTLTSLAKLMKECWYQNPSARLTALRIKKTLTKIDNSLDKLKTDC
As to the kind of experiment: ALK binding assay (LANTHASCREEN TR-FRET competitive binding, displacement of Kinase Tracer 178). The note with it: ALK2 R206H, LANTHASCREEN TR-FRET competitive binding; read-out: Binding Assay (IC50). Background: TR-FRET usually uses a lanthanide donor and a delayed reading to cut background.

The target of assay [2] is T2, human ALK2 R206H (Homo sapiens, UniProt Q04771, R206H).
T2 construct: expressed in transfected cells; host or cells: HEK293 (ATCC CRL1573), lentivirus transduction, blasticidin selection
T2 sequence (Q04771 21-509 R206H): T1 sequence (Q04771 21-509 R206H)
As to the kind of experiment: Cell-based ALK2-R206H cell activity assay (Smad1-Ser463/Ser465 phosphorylation by AlphaLISA in HEK293-ALK2-R206H cells). The note with it: read-out: Cell Line (Cell Assay IC50). The gist of the method: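 Stable HEK293 cells expressing C-terminally FLAG-tagged human ALK2 R206H (lentiviral, blasticidin-selected) were treated with compounds in 10-point, 3-fold dilutions from 10 μM or 1 μM top, in duplicate. Smad1 Ser463/Ser465 phosphorylation was read by AlphaLISA.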
Background: Bead proximity is the source of the signal in Alpha formats.

pIC50: −log10 of the molar value.

Regarding `CCN1CCC(c2ccc(-c3cc4c(N5CCN(C(=O)[C@H]6C[C@](C)(O)C6)CC5)ccnn4c3)cc2)CC1` [Compound 384], the pIC50 in assay [1] is greater than 8.00; in assay [2] it was greater than 7.00.

`CCOC(=O)N1CCN(c2ccnn3cc(-c4ccc(C5(OC)CCNC(C)(C)C5)cn4)cc23)CC1` (stereo not shown) [Compound 802]: the pIC50 in assay [1] is greater than 8.00; in assay [2], greater than 7.00.

On to `CC(C)NC(=O)N1CCN(c2ccnn3cc(-c4ccc(C5CCCN5)cn4)cc23)CC1` (stereo not shown) [Compound 465], for which the negative logarithm of the IC50 (pIC50) in assay [1] is greater than 8.00; in assay [2], 6.30 to 7.00.

With `CCCNC(=O)N1CCN(c2ccnn3cc(-c4ccc([C@H]5CCCN(C(C)C)C5)cc4)cc23)CC1` [Compound 579], the pIC50 in assay [1] is greater than 8.00; in assay [2], greater than 7.00.

For the molecule `CCNC(=O)N1CCN(c2ccnn3cc(-c4cc5c(s4)CN(C(C)C)CC5)cc23)CC1` [Compound 192], the figures for the pIC50 in assay [1] and in assay [2] were greater than 8.00 and greater than 7.00, respectively.

As to `COC1(c2ccc(-c3cc4c(N5CCN(C(=O)OC6COC6)CC5)ccnn4c3)cc2)CCN([C@H](C)COC(F)F)CC1` [Compound 897], the pIC50 in assay [1] was greater than 8.00; in assay [2] it was greater than 7.00.

For the molecule `COC1(c2ccc(-c3cc4c(N5CCN(C(=O)C6CC6)CC5)ccnn4c3)cc2)CCCN(C(C)C)C1` (stereo not shown) [Compound 388], the pIC50 in assay [1] is greater than 8.00; in assay [2] it was greater than 7.00.

On to `O=C(C1CC1)N1CCN(c2ccnn3cc(-c4ccc(C5CCCN5)cc4)cc23)CC1` (stereo not shown) [Compound 113], for which the pIC50 in assay [1] was greater than 8.00; in assay [2], greater than 7.00.

On to `CCNC(=O)N1CCN(c2ccnn3cc(-c4ccc(C5(O)CN(C(C)C)C5)cc4)cc23)CC1` [Compound 235], for which the pIC50 is greater than 8.00 in assay [1] and 6.30 to 7.00 in assay [2].

With `COC1(c2ccc(-c3cc4c(N5CCN(C(=O)C6CC6)CC5)ccnn4c3)nc2)CCN(C(C)C)CC1` [Compound 624], the pIC50 in assay [1] is greater than 8.00; in assay [2], greater than 7.00.

Consider `CC(N)(CO)c1ccc(-c2cc3c(N4CCN(C(=O)C5CC5)CC4)ccnn3c2)cc1` (stereo not shown) [Compound 455], for which the results for the negative-log IC50 (pIC50) in assay [1] and in assay [2] were greater than 8.00 and greater than 7.00, respectively.

Take `CCN1CC2(C1)CN(c1ccc(-c3cc4c(N5CCN(C(=O)[C@H]6C[C@H]6F)CC5)ccnn4c3)cc1)C2` [Compound 333]: the negative logarithm of the IC50 (pIC50) in assay [1] is greater than 8.00; in assay [2], greater than 7.00.

Turning to `CCOC(=O)N1CCN(c2ccnn3cc(-c4ccc(C5(C)CCN(C(C)C)CC5)cc4)cc23)CC1` [Compound 585], the results for the pIC50 in assay [1] and in assay [2] were greater than 8.00 and greater than 7.00, respectively.

Turning to `CC(C)N1CCC[C@]1(C)c1ccc(-c2cc3c(N4CCN(C(=O)C5CC5)CC4)ccnn3c2)cc1` [Compound 510], the pIC50 in assay [1] was greater than 8.00; in assay [2] it was greater than 7.00.

In the case of `O=C(C1CC1)N1CCN(c2ccnn3cc(-c4ccc([C@H]5CCCN5)nc4)cc23)CC1` [Compound 451], the pIC50 in assay [1] is greater than 8.00; in assay [2] it was greater than 7.00.

For `CCOC1(c2ccc(-c3cc4c(N5CCN(C(=O)OC[C@@H](C)F)CC5)ccnn4c3)nc2)CCN(C(C)C)CC1` [Compound 867], the values for the pIC50 in assay [1] and in assay [2] were greater than 8.00 and greater than 7.00, respectively.

Take `CCN[C@@H](CO)c1ccc(-c2cc3c(N4CCN(C(=O)OC5COC5)CC4)ccnn3c2)cc1` [Compound 780]: the pIC50 was greater than 8.00 in assay [1] and greater than 7.00 in assay [2].

Turning to `CC(C)NC(=O)N1CCN(c2ccnn3cc(-c4ccc([C@@]5(C)CN(C(C)C)CCN5)cc4)cc23)CC1` [Compound 633], the pIC50 in assay [1] is greater than 8.00; in assay [2], greater than 7.00.

On to `CCOC(=O)N1CCN(c2ccnn3cc(-c4ccc(C5(OCC)CCN(C6COC6)CC5)cn4)cc23)CC1` [Compound 845], for which the pIC50 in assay [1] was greater than 8.00; in assay [2], greater than 7.00.

Take `CCNC(=O)N1CCN(c2ccnn3cc(-c4ccc([C@@H]5CCCN5)nc4)cc23)CC1` [Compound 456]: the negative-log IC50 (pIC50) was greater than 8.00 in assay [1] and 6.30 to 7.00 in assay [2].

For the molecule `CC(C)NC(=O)N1CCN(c2ccnn3cc(-c4ccc(C5COCCN5)cc4)cc23)CC1` (stereo not shown) [Compound 478], the results for the pIC50 in assay [1] and in assay [2] were greater than 8.00 and greater than 7.00, respectively.

With `CO[C@@]1(c2ccc(-c3cc4c(N5CCN(C(=O)C6CC6)CC5)ccnn4c3)cc2)CCN(C(C)C)C1` [Compound 573], the negative logarithm of the IC50 (pIC50) in assay [1] was greater than 8.00; in assay [2], greater than 7.00.

`CCN1CCC(c2ccc(-c3cc4c(N5CCN(C(=O)[C@H]6C[C@H](O)C6)[C@H](C)C5)ccnn4c3)cc2)CC1` [Compound 382]: the results for the pIC50 in assay [1] and in assay [2] were greater than 8.00 and greater than 7.00, respectively.

`CC(C)N1CC[C@@H](c2ccc(-c3cc4c(N5CCN(C(=O)[C@H]6CC[C@H](O)CC6)CC5)ccnn4c3)cc2)C1` [Compound 419]: the pIC50 was greater than 8.00 in assay [1] and greater than 7.00 in assay [2].

As to `O=C(C1CC1)N1CCN(c2ccnn3cc(-c4ccc(N5CCN(C6COC6)CC5)cc4)cc23)CC1` [Compound 314, cyclopropyl(4-(6-(4-(4-(oxetan-3-yl)piperazin-1-yl)phenyl)pyrrolo[1,2-b]pyridazin-4-yl)piperazin-1-yl)methanone], the pIC50 is 7.30 to 8.00 in assay [1] and less than 6.30 in assay [2].

In the case of `O=C(C1CC1)N1CCN(c2ccnn3cc(-c4cnn(C5CCCNC5)c4)cc23)CC1` (stereo not shown) [Compound 116], the pIC50 in assay [1] is greater than 8.00; in assay [2] it was greater than 7.00.

As for `CC(C)NC(=O)N1CCN(c2ccnn3cc(-c4ccc([C@H]5CCN(C(C)C)C5)cc4)cc23)CC1` [Compound 533], the pIC50 is greater than 8.00 in assay [1] and greater than 7.00 in assay [2].

As for `CCOC(=O)N1CCN(c2ccnn3cc(-c4ccc([C@]5(O)CCN(C(C)C)C5)cc4)cc23)CC1` [Compound 551], the pIC50 was greater than 8.00 in assay [1] and greater than 7.00 in assay [2].

On to `CC(C)NC(=O)N1CCN(c2ccnn3cc(-c4ccc(C5(C#N)CCNCC5)cc4)cc23)CC1` [Compound 502], for which the values for the pIC50 in assay [1] and in assay [2] were greater than 8.00 and greater than 7.00, respectively.

As to `CCNC(=O)N1CCN(c2ccnn3cc(-c4ccc([C@@]5(O)CCCN(C(C)C)C5)cn4)cc23)CC1` [Compound 606], the pIC50 was greater than 8.00 in assay [1] and greater than 7.00 in assay [2].

Consider `CC(C)N1CC[C@@H](OC(F)F)[C@H](c2ccc(-c3cc4c(N5CCN(C(=O)OC6COC6)CC5)ccnn4c3)cc2)C1` [Compound 889], for which the pIC50 in assay [1] was greater than 8.00; in assay [2], greater than 7.00.

As for `N#C[C@H]1C[C@@H]1C(=O)N1CCN(c2ccnn3cc(-c4ccc(C5CNCCO5)cc4)cc23)CC1` (stereo partly shown) [Compound 195], the pIC50 is greater than 8.00 in assay [1] and greater than 7.00 in assay [2].

With `CCOC(=O)N1CCN(c2ccnn3cc(-c4ccc(OC5CN(C(C)C)C5)cc4)cc23)CC1` [Compound 236], the pIC50 in assay [1] was greater than 8.00; in assay [2] it was 6.30 to 7.00.

Regarding `CCN1CC[C@@H](c2ccc(-c3cc4c(N5CCN(C(=O)[C@H]6C[C@H]6F)CC5)ccnn4c3)cc2)C1` [Compound 227], the pIC50 in assay [1] was greater than 8.00; in assay [2], greater than 7.00.

As for `COC1(c2ccc(-c3cc4c(N5CCN(C(=O)NC(C)C)CC5)ccnn4c3)nc2)CCN([C@H](C)COC(F)F)CC1` [Compound 750], the pIC50 is greater than 8.00 in assay [1] and greater than 7.00 in assay [2].

Turning to `Cc1cc(-c2cc3c(N4CCN(C(=O)C5CC5)CC4)ccnn3c2)ccc1[C@H]1CCN(C(C)C)C1` [Compound 504], the negative logarithm of the IC50 (pIC50) in assay [1] is greater than 8.00; in assay [2], 6.30 to 7.00.

As to `CC(C)N1CCC[C@@H](c2ccc(-c3cc4c(N5CCN(C(=O)NCCC#N)CC5)ccnn4c3)cc2)C1` [Compound 617], the pIC50 in assay [1] is greater than 8.00; in assay [2] it was 6.30 to 7.00.

Turning to `CO[C@]1(c2ccc(-c3cc4c(N5CCN(C(=O)C6CC6)CC5)ccnn4c3)cc2)CCCNC1` [Compound 489], the pIC50 was greater than 8.00 in assay [1] and greater than 7.00 in assay [2].

For the molecule `CCOC(=O)N1CCN(c2ccnn3cc(-c4ccc(C5(OC)CCNCC5)cc4)cc23)CC1` [Compound 498], the pIC50 was greater than 8.00 in assay [1] and greater than 7.00 in assay [2].

As to `CCN1CCC(c2ccc(-c3cc4c(N5CCN(C(=O)[C@H]6C[C@H]6F)CC5)ccnn4c3)cc2)CC1` [Compound 281], the pIC50 in assay [1] was greater than 8.00; in assay [2] it was greater than 7.00.

Turning to `CCOC1(c2ccc(-c3cc4c(N5CCN(C(=O)OC6(C)COC6)CC5)ccnn4c3)nc2)CCN(C(C)C)CC1` [Compound 878], the pIC50 in assay [1] was greater than 8.00; in assay [2], greater than 7.00.

With `CCOC1(c2ccc(-c3cc4c(N5CCN(C(=O)OC6COC6C)CC5)ccnn4c3)nc2)CCN(C(C)C)CC1` (stereo not shown) [Compound 879], the pIC50 in assay [1] is greater than 8.00; in assay [2], greater than 7.00.

As to `CC(C)N1CCC(c2ccc(-c3cc4c(N5CCN(C(=O)OC(CO)C(=O)O)CC5)ccnn4c3)cc2)CC1` (stereo not shown) [Compound 847, 3-hydroxy-2-(4-(6-(4-(1-isopropylpiperidin-4-yl)phenyl)pyrrolo[1,2-b]pyridazin-4-yl)piperazine-1-carbonyloxy)propanoic acid], the pIC50 in assay [1] is greater than 8.00; in assay [2], less than 6.30.

As for `CC(C)N1CC(O)(c2ccc(-c3cc4c(N5CCN(C(=O)C6CC(C#N)C6)CC5)ccnn4c3)cc2)C1` (stereo not shown) [Compound 616], the pIC50 in assay [1] was greater than 8.00; in assay [2], greater than 7.00.

For orientation: pIC50 means the IC50 on a negative log10 scale, so that one unit is a factor of ten.
